Laboratory results: US4889858A, “Dibenz[b,e]oxepin derivatives and pharmaceutical composition containing the same” (Dainippon Pharmaceutical Co., Ltd., priority 1986, dated 1989)
Structures can show the parent of a compound that is named as a salt.

Assays:
[1] = Anti-convulsant activity (Swinyard); format: in vivo, mice (ddY male); design: key: 9: Anticonvulsant activity was observed in all three mice.; 1: No anticonvulsant activity was observed in all three mice; details: 100 mg/kg p.o.; 2 hours after administration; three mice
Method: Three ddY male mice weighing 20-24 g were employed in each group. Test compounds suspended in a 0.5% tragacanth solution were orally administered to mice at a dose of 100mg/kg in an amount of 0.1 ml/10 g body weight. The same amount of 0.5% tragacanth solution was orally administered to control group. Two hours after the administration of the test compounds, the anti-convulsant activity was measured in accordance with the procedure by Swinyard (Mercier, J., Ed., "Anticonvulsant Drugs", P. 47-65, Pargamon Press, New York, 1973).

[2] = tested on: lipid peroxidation of brain mitochondria; experiment: Inhibitory effect on lipid peroxidation of brain mitochondria (thiobarbituric acid method); format: biochemical; details: rat brain mitochondria; 37° C., 30 minutes; Fe++ 25 μM, ascorbic acid 50 μM
Method: This test was conducted in accordance with the procedures by Kubo et al. [Arch. int. Pharmacodyn., 272, 283 (1984)]. Brain mitochondria of rat were incubated in 25 mM Tris-HCl buffer solution at 37° C. for 30 minutes in the presence of Fe^++ ion (25 μM) and ascorbic acid (50 μM), and the produced peroxidized lipid was measured by the thiobarbituric acid method.

[3] = Prolonging effect of the persistent time of gasping movements in complete ischemia (decapitation); format: in vivo, mice (ddY male); details: for minimal effective dose: Mus musculus, po, 2 hours after administration, mice; for activity in prolonging gasping movements, in words: p.o., compared with flunarizine hydrochloride / compounds of the invention
Method: Test was conducted in accordance with the procedure by Wauquier et al. [Japan J. Pharmacol., 38, 1 (1985)], employing five ddY male mice weighing 20-24 g in each group. Test compounds were suspended in 0.5% tragacanth solution and then a fixed amount of the suspension was orally administered to mice in an amount of 0.1 ml/10 g body weight, while the same amount of 0.5% tragacanth solution was orally administered to control group. Two hours after the administration of the test compounds, the necks of mice were cut with scissors for decapitation. The persistent of gasping movements of isolated heads was measured and minimal effective dose was determined by statistically comparing with the data in control group.

[4] = Prolonging effect on the time to death by hypoxia (anoxia) in mice; format: in vivo, mice (STD-ddY male); details: p.o.; compared with flunarizine hydrochloride
Method: Five STD-ddY male mice (weighing 20-24 g) were employed in each group. A fixed amount of test compounds was suspended in 0.5% tragacanth solution and the suspension was orally administered to mice in an amount of 0.1 ml/10 g body weight. Two hours after the administration, each mouse was taken in a 2.5 liter plastic chamber and a mixed gas comprising 4% oxygen and 96% nitrogen was passed through the chamber at a rate of 4 liter/min. There was measured the time till the death (respiratory cessation) of mice. To control group, a 0.5% tragacanth solution without test compound was orally administered.

Acute toxicity = format: in vivo, mice (ddY male); details: 500 mg/kg p.o.; seven days observation; five mice
Method: Five ddY male mice weighing 20-24 g were employed in each group. The compound 1 of the present invention suspended in a 0.5% tragacanth solution was orally administered to mice at a dose of 500 mg/kg in an amount of 0.1 ml/10 g body weight. After the administration, the occurrence of death has been observed for seven days.

| IC50 [2] | SMILES | Score, anti-convulsant activity [1] | minimal effective dose [3] | activity in prolonging gasping movements, in words [3] | prolonging effect under hypoxic condition, in words [4] | occurrence of death (Acute toxicity) |
| --- | --- | --- | --- | --- | --- | --- |
| > 150 µM | COc1cccc(C=CCN2CCN(C3c4ccccc4COc4cc(F)ccc43)CC2)c1 (stereo not shown) [A, 11-? 4-(3,-methoxycinnamyl)-1-piperazinyl-3-fluoro-6-11dihydrodibenz[b,e]oxepin, reference compound] | 1 | > 100 mg/kg | lower activities | – | – |
| > 150 µM | Cc1ccc2c(c1)OCc1ccccc1C2N1CCN(C/C=C/c2ccccc2)CC1 (stereo not shown) [B, 11-(4-cinnamyl-1-piperazinyl)-3-methyl-6,11-dihydrodibenz[b,e]oxepin, reference compound] | 1 | > 100 mg/kg | lower activities | – | – |
| – | COc1ccc2c(c1)C(N1CCN(C/C=C/c3ccccc3)CC1)c1ccccc1CO2 (stereo not shown) [Compound 2, 11-(4-cinnamyl-1-piperazinyl)-2-methoxy-6,11-dihydrodibenz[b,e]oxepin] | – | 3 mg/kg | – | clearly more excellent than that o flunarizine hydrochloride | – |
| 12.3 µM | Oc1ccc2c(c1)C(N1CCN(C/C=C/c3ccccc3)CC1)c1ccccc1CO2 (stereo not shown) [Compound 3, 11-(4-cinnamyl-1-piperazinyl)-2-hydroxy-6,11-dihydrodibenz[b,e]oxepin] | – | 30 mg/kg | – | – | – |
| – | Fc1ccc2c(c1)COc1ccc(F)cc1C2N1CCN(C/C=C/c2ccccc2)CC1 (stereo not shown) [Compound 4] | 9 | 30 mg/kg | – | – | – |
| – | Fc1ccc2c(c1)OCc1c(F)cccc1C2N1CCN(C/C=C/c2ccccc2)CC1 (stereo not shown) [Compound 5] | – | 3 mg/kg | – | – | – |
| – | Fc1ccc2c(c1)OCc1ccc(F)cc1C2N1CCN(C/C=C/c2ccccc2)CC1 (stereo not shown) [Compound 6] | – | 10 mg/kg | – | – | – |
| – | COc1ccc(OC)c2c1OCc1ccccc1C2N1CCN(C/C=C/c2ccccc2)CC1 (stereo not shown) [Compound 7] | – | 30 mg/kg | – | – | – |
| – | Fc1ccc2c(c1)C(N1CCN(CC=Cc3cccs3)CC1)c1ccccc1CO2 (stereo not shown) [Compound 8] | – | 30 mg/kg | – | – | – |
| – | Fc1ccc(C(c2ccc(F)cc2)N2CCN(C/C=C/c3ccccc3)CC2)cc1 [Flunarizine hydrochloride, reference compound] | 9 | 30 mg/kg | – | – | – |

| SMILES | IC50 [2] | Score, anti-convulsant activity [1] | minimal effective dose [3] | activity in prolonging gasping movements, in words [3] | prolonging effect under hypoxic condition, in words [4] | occurrence of death (Acute toxicity) |
| --- | --- | --- | --- | --- | --- | --- |
| Fc1ccc2c(c1)OCc1ccccc1C2N1CCN(C/C=C/c2ccccc2)CC1 (stereo not shown) [Compound 1, 11-(4-cinnamyl-1-piperazinyl)-3-fluoro-6,11-dihydrodibenz[b,e]oxepin] | 7.8 µM | 9 | 10 mg/kg | – | clearly more excellent than that o flunarizine hydrochloride | no death |
